1 compound from ChEMBL document CHEMBL3400053, “trans-3,4-Disubstituted pyrrolidines as inhibitors of the human aspartyl protease renin. Part II: prime site exploration using an oxygen linker” (Bioorg Med Chem Lett, 2015) can be followed below.

Data set [1] addresses Cytochrome P450 2C9 (Homo sapiens, UniProt P11712). Nature of the data set: Inhibition of CYP2C9 (unknown origin). Format: ADME.
Data set [2] in a line: Half life in cannulated fed Sprague-Dawley rat at 2 mg/kg, iv. Format: ADME, organism-based. Also on record: dose 2 mg/kg, route intravenous. Conditions: in vivo.
In data set [3] the target is Cytochrome P450 3A4 (Homo sapiens, UniProt P08684). The data set is described as follows: Inhibition of CYP3A4 (unknown origin) using 7-benzyl-4-trifluoromethylcoumarin as fluorometric substrate. Format: ADME.
Chain of Cytochrome P450 3A4 (P08684 whole entry): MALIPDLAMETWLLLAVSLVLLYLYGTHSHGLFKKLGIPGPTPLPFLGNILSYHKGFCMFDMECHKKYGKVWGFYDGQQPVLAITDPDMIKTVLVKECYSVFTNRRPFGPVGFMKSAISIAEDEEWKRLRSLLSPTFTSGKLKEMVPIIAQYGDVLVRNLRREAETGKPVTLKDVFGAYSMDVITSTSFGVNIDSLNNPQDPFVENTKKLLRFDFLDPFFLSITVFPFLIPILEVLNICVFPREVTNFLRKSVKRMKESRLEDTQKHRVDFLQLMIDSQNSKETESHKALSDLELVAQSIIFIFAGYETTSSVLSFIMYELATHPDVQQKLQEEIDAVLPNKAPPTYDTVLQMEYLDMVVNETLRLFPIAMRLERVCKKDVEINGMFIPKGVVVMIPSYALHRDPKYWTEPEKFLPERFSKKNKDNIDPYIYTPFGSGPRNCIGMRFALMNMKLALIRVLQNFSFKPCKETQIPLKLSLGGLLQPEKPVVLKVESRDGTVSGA
The target of data set [4] is Voltage-gated inwardly rectifying potassium channel KCNH2 (Homo sapiens, UniProt Q12809). Nature of the data set: Inhibition of human ERG by dofetilide binding assay.
Chain of Voltage-gated inwardly rectifying potassium channel KCNH2 (Q12809 whole entry): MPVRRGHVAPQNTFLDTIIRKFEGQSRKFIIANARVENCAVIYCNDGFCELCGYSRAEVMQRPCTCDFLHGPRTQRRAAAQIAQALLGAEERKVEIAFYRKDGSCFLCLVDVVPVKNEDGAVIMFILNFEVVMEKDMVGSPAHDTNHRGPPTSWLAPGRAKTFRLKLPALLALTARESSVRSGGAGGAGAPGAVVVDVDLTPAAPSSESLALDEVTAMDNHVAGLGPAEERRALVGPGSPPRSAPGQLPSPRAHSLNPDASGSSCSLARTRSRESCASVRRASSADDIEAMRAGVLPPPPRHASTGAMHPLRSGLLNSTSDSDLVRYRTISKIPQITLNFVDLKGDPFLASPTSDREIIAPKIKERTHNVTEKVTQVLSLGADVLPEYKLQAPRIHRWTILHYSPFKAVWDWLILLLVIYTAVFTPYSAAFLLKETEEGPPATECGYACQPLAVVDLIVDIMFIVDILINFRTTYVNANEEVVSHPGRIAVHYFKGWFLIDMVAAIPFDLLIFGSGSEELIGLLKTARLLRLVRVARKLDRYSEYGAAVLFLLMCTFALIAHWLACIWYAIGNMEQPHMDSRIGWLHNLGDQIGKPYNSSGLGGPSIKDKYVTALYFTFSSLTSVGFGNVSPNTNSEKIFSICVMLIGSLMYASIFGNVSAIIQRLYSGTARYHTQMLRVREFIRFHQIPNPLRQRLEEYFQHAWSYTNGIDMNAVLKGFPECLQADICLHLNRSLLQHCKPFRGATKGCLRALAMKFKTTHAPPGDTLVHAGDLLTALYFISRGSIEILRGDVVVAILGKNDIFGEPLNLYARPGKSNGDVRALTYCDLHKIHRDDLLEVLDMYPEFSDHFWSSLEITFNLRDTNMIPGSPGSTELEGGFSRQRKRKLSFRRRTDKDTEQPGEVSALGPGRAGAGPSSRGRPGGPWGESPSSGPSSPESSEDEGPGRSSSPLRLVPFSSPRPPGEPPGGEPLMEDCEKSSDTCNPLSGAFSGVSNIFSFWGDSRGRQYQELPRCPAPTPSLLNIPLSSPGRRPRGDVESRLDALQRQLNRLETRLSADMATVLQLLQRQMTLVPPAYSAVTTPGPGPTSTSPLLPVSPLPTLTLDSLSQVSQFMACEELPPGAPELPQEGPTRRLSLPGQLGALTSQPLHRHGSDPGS
Data set [5] concerns the target T1, Gastricsin (Homo sapiens, UniProt P20142).
T1 sequence (P20142 whole entry): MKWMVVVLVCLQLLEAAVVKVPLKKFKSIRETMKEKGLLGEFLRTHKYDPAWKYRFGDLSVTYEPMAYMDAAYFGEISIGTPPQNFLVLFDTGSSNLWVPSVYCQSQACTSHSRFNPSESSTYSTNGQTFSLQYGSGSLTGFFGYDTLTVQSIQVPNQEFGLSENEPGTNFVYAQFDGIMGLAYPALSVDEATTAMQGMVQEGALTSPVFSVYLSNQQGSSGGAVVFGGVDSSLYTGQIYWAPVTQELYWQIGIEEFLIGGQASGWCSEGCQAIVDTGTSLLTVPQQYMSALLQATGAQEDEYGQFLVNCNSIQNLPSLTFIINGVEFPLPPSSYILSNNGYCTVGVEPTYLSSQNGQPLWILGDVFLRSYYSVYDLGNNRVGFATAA
The data set is described as follows: Inhibition of pepsin C (unknown origin).

Data set [6] concerns the target T2, Renin (Homo sapiens, UniProt P00797).
T2 sequence (P00797 whole entry): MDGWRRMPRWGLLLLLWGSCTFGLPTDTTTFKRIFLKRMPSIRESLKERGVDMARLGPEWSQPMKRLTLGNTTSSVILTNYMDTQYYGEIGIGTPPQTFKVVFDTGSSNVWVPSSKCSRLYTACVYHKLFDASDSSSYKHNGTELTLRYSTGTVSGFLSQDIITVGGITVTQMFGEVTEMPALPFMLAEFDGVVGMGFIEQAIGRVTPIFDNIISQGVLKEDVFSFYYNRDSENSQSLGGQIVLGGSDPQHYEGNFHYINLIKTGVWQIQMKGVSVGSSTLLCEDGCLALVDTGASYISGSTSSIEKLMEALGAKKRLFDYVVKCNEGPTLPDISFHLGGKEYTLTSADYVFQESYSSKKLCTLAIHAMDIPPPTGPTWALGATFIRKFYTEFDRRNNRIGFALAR
Nature of the data set: Inhibition of human recombinant renin in presence of plasma by TR-FRET assay.

Data set [7] deals with Rattus norvegicus. The data set is described as follows: Reduction in mean arterial blood pressure in hypertensive telemetered double-transgenic rat overexpressing human renin and angiotensinogen at 6 mg/kg, po. Format: functional.
Data set [8] can be described thus: Volume of distribution at steady state in cannulated fed Sprague-Dawley rat at 2 mg/kg, iv. In kind it is ADME, organism-based. Particulars: in vivo, read-out: Vdss. Also noted: dose 2 mg/kg, route intravenous.
The nature of data set [9]: Solubility in aqueous buffer at pH 6.8. In kind it is physicochemical.
Data set [10] concerns Rattus norvegicus. Nature of the data set: Reduction in mean arterial blood pressure in hypertensive telemetered double-transgenic rat overexpressing human renin and angiotensinogen at 30 mg/kg, po. In kind it is functional.
Data set [11] addresses T3, Alpha-2A adrenergic receptor (Homo sapiens, UniProt P08913).
T3 sequence (P08913 whole entry): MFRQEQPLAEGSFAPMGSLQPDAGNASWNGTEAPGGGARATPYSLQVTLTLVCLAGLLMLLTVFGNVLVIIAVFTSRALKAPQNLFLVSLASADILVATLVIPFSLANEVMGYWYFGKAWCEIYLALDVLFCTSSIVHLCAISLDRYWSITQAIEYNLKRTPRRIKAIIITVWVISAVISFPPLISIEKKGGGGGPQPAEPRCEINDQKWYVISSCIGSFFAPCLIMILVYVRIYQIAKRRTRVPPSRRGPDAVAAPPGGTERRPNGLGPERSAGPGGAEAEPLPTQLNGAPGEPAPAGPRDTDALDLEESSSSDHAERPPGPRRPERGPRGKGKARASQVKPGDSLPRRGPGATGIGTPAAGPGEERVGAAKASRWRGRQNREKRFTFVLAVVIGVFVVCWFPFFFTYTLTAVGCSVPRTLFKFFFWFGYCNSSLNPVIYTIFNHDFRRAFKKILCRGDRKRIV
Nature of the data set: Inhibition of alpha-adrenoceptor 2A (unknown origin).

For data set [12], the target named is Beta-secretase 1 (Homo sapiens, UniProt P56817). The data set is described as follows: Inhibition of BACE1 (unknown origin).
Chain of Beta-secretase 1 (P56817 whole entry): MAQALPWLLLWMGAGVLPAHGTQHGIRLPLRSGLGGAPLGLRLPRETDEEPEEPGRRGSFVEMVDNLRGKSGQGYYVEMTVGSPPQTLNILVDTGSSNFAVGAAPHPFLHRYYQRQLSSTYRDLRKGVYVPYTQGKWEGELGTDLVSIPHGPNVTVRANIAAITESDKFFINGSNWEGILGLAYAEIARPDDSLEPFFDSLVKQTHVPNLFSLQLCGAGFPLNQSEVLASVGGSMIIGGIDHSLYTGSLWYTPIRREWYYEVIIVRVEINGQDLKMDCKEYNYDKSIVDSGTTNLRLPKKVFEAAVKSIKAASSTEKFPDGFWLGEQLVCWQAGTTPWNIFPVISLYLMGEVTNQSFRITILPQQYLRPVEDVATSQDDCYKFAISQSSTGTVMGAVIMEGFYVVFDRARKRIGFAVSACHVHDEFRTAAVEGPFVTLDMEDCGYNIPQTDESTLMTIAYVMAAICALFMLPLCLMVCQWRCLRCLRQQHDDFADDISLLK
The target of data set [13] is Mu-type opioid receptor (Homo sapiens, UniProt P35372). The data set is described as follows: Inhibition of mu opioid receptor (unknown origin).
Chain of Mu-type opioid receptor (P35372 whole entry): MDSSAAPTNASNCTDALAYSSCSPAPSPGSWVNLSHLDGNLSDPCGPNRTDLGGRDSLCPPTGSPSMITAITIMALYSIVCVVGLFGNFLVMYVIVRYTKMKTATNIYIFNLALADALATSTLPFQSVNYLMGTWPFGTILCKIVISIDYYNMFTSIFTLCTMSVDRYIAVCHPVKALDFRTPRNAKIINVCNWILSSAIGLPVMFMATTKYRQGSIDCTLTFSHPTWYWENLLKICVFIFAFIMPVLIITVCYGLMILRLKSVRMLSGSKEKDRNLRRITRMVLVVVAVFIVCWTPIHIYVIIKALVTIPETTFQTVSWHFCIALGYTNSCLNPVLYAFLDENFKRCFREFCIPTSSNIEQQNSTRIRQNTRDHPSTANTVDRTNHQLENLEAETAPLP
The test system of data set [14] is Rattus norvegicus. The data set is described as follows: Oral bioavailability in cannulated fed Sprague-Dawley rat at 6 mg/kg. Format: ADME, organism-based. Conditions: in vivo.
Data set [15] is described as follows: Cmax in cannulated fed Sprague-Dawley rat at 6 mg/kg, po. Format: ADME, organism-based. Also noted: dose 6 mg/kg, route oral. Conditions: in vivo.
Data set [16] concerns the target T4, Alpha-2B adrenergic receptor (Homo sapiens, UniProt P18089).
T4 sequence (P18089 whole entry): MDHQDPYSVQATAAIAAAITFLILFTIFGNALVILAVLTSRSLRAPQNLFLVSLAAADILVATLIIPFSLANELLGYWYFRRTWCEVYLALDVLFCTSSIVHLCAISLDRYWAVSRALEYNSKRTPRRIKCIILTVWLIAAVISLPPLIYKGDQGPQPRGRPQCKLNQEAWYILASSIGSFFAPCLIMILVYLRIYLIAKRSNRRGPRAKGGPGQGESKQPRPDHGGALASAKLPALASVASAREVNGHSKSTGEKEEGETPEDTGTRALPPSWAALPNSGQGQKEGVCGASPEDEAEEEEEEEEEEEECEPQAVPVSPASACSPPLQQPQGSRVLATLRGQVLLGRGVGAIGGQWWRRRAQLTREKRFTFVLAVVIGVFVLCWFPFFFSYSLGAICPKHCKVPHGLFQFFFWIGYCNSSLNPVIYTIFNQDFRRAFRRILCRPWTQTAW
Nature of the data set: Inhibition of alpha-adrenoceptor 2B (unknown origin).

The target in data set [17] is Phosphodiesterase 3 (Homo sapiens, UniProt Q14432+Q13370). The data set is described as follows: Inhibition of PDE3 (unknown origin). In kind it is protein assay.
Data set [18] concerns the target T5, Alpha-1A adrenergic receptor (Homo sapiens, UniProt P35348).
T5 sequence (P35348 whole entry): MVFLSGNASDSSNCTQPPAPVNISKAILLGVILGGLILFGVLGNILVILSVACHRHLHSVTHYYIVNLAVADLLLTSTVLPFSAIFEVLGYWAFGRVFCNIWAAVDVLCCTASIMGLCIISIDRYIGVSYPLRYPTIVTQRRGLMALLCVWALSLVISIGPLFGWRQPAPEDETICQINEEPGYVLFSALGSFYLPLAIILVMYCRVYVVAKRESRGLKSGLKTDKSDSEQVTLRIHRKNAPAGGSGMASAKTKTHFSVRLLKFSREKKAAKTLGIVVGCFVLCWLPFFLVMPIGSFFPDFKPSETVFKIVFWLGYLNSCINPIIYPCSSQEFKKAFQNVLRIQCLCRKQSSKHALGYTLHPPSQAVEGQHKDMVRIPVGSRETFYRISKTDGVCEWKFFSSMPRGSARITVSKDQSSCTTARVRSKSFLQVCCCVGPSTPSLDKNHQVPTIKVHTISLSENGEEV
Nature of the data set: Inhibition of alpha-adrenoceptor 1A (unknown origin).

Data set [19] concerns Rattus norvegicus. The data set is described as follows: Plasma clearance in cannulated fed Sprague-Dawley rat at 2 mg/kg, iv. In kind it is ADME, organism-based. Also on record: dose 2 mg/kg, route intravenous. Particulars: in vivo.

The structures appear in SMILES notation. pIC50: −log10 of the molar value.

Chain of Cytochrome P450 2C9 (P11712 whole entry): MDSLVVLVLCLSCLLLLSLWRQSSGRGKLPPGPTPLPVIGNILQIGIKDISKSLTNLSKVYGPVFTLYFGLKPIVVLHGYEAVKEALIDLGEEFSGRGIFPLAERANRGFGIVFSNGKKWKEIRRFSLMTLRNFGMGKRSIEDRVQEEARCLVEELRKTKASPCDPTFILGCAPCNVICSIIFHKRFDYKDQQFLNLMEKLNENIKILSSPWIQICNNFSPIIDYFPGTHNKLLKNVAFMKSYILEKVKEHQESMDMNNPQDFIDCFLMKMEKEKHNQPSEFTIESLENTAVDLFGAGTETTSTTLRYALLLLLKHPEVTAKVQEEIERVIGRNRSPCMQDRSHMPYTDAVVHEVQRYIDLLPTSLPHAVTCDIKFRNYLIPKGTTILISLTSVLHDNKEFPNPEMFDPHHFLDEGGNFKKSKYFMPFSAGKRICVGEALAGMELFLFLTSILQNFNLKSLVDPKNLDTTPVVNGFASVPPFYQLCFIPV

As to `COCCCOc1cc(C(=O)N(C[C@@H]2CNC[C@H]2OC(=O)NCc2ccccc2)C(C)C)ccc1OC`, the pIC50 in [1] was below 4.70; in [3], 5.40; in data set [4], 4.89; in data set [5], below 4.52; in [6], 7.52; in [11] it was 6.00. Besides, the pIC50 in [12] is below 4.52; in [13], 6.00; in data set [16], 6.00; in data set [18], 6.30. This compound had a half-life in data set [2] of 132 min. The figures for the Activity in data set [7] and in [10] were 43 mmHg and 62 mmHg, respectively. In addition, the Vd in data set [8] was 4.9 L/kg. This compound also yielded a solubility in data set [9] above 1000 µM. The F in data set [14] turned out to be 57%. In [15], the highest level (Cmax) was 1020 nM. The same compound came in with an IC50 in data set [17] of 1 µM. Moreover, the CL in data set [19] was determined as 2.5 L/h/kg.
